The viability is the share of living cells, or the viability signal relative to a control.

Read-outs that look alike come from different tables or passages of the source. Where only a bound is given, the exact number is not on record here.

What all share (assay type): cell-based, human
For series [1], the system named is T98G cells. Nature of the series: MTT cell viability assay in T98G glioblastoma cells. As to conditions: for IC50: Homo sapiens; for IC50 / percentage of cell viability: T98G cells, MTT; for percentage of cell viability: 40 or 80 μM; for anti-glioblastoma activity (in words): T98G cultures. How it is done: (§1) T98G cells were isolated from the brain of a glioblastoma multiforme patient (ATCC, cat. No. CRl-1690, RRUD: CVCL-0556, Manassas, VA, USA). HEK 293 cells are derived from human embryonic kidney cells (ATCC Cat# CRL-1573, RRID: CVCL_0045). Both cell lines were grown in Dulbecco’s modified Eagle’s medium (DMEM, Invitrogen) supplemented with 10% fetal serum bovine serum (FBS) at 37 °C according to reference.
(§2) 3 × 10^3 cells were seeded in a 96-well plate and were allowed to attach overnight at 37 °C. T98G cells were treated in duplicate or triplicate with different concentrations of the crude/chemically modified extract or pure compounds. The stock solutions were dissolved in DMSO at the final concentration of 160 mg/ml and 5 or 80 mM for the crude/chemically modified extracts and pure compounds, respectively. After 24 h, 100 μL of DMEM supplemented with 10% of FBS and 10% of 3-(4,5-dimethylthiazol-2-yl)-2,5-diphenyltetrazolium bromide (MTT) reagent (5 mg/mL; Sigma) were added to each well, and plates were further incubated for 2 h at 37 °C as described in references,[36]. Then, 100 μL of DMSO:isopropanol (1:1, v/v) were added to each well followed by incubation for a few minutes at room temperature protected from light. Absorbance was analyzed at 570 nm with a reference at 650 nm in an Epoch Microplate Spectrophotometer. Cells incubated with an equivalent DMSO concentration were considered 100% of viability. The equation “log(inhibitor) vs response—variable slope (four parameters) of the GraphPad Prism software was used to calculate the IC50 (half maximal inhibitory concentration) value.
To evaluate the standard treatment, T98G cultures were treated with temozolomide (5 to 1400 μM). After 72 h, the MTT assay was used to determined cell viability and the IC50 value was calculated as describe above.

The subject of a further series is HEK 293 cells. Nature of the series: MTT cell viability assay in non-tumor HEK 293 cells. To be noted: for selectivity index: HEK 293 versus T98G. As for the experimental part:
as §1, §2

In series [2] the test system is T98G cells. Kind of series: Temporal susceptibility: MTT viability of dexamethasone-synchronized T98G cells. To be noted: for viability at 13.6 µM: Homo sapiens, 24 h, read-out: cell viability. How it is done: T98G cells were seeded at the density of 3 × 10^3 in a 96-well plate and incubated overnight at 37 °C. Cultured cells were synchronized with dexamethasone (100 nM, 1 h at 37 °C) according to reference and then treated with (3) (13.6 μM) or DMSO at different times post-synchronization for 24 h. After incubation, cell viability was measured by MTT assay as described above. Cells incubated with DMSO were considered as 100% of viability.

Where [3] appears, read: pure compounds, 24 h, read-out: IC50.

Consider `C=C1C(=O)O[C@@H]2[C@H]1CC[C@H](C)[C@]1(CCC(=O)O1)[C@@]2(C)O` [PsiA, psilostachyin A], for which the IC50 in the series on T98G cells [1] (setting [3]) came out at 17.4 µM. In addition, the selectivity index entry in the series on HEK 293 cells is recorded as “Only 3 showed a good selectivity index”.
As for `C=C1C(=O)OC2C1CCC(C)=C1CCC(=O)OC12C` (stereo not shown) [PsiB, psilostachyin B], in the series on T98G cells [1] (setting [3]), the IC50 came out at 13.9 µM.
Same read-out and setting: for `C=C1C(=O)OC2C1CCC(C)C1CCC(=O)OC12C` (stereo not shown) [PsiC, psilostachyin C] the value was 14.2 µM.
As to `Cn1nnc2c(C(N)=O)ncn2c1=O` [Temozolomide, reference compound], in the series with T98G cells [1] (standard treatment, 72 h, read-out: IC50), the IC50 was found to be 844 µM.
For `CC1=C(/C=C/C(=O)O)[C@]2(C)CC[C@@H](C=C2C(=O)O)C1` [compound 1, (1R,5S)-4-((E)-2-carboxyvinyl)-3,5-dimethylbicyclo[3.2.2]nona-3,6-diene-6-carboxylic acid], the “percentage of cell viability” value in the series on T98G cells [1] (24 h) is listed as “higher than 50%”. In addition, the “anti-glioblastoma activity (in words)” value in the series with T98G cells [1] is “weak anti-glioblastoma activity”.
In the case of `COC(=O)/C=C/C1=C(C)C[C@@H]2C=C(C(=O)OC)[C@@]1(C)CC2` [compound 2, Methyl (1R,5S)-4-((E)-3-methoxy-3-oxoprop-1-en-1-yl)-3,5-dimethylbicyclo[3.2.2]nona-3,6-diene-6-carboxylate], in the series on T98G cells [1] (24 h), the “percentage of cell viability” value is given as “higher than 50%”. Moreover, the “anti-glioblastoma activity (in words)” value in the series with T98G cells [1] was “weak anti-glioblastoma activity”.
Consider `C=C1C(=O)O[C@H]2C(=C)[C@@]3(CCC(=O)O3)[C@@H](C)CC[C@@H]12` [compound 3, (3aS,6S,7R,8aR)-6-methyl-3,8-dimethyleneoctahydro-5'H-spiro[cyclohepta[b]furan-7,2'-furan]-2,5'(3H)-dione], for which the IC50 in the series on T98G cells [1] (setting [3]) was 13.6 µM; in the series with HEK 293 cells (Homo sapiens, HEK293, 24 h, HEK 293 cells, 24 h, MTT), about 39 µM. The “anti-glioblastoma activity (in words)” value in the series on T98G cells [1] is reported as “most active derivative of the series”. Also, the selectivity index result in the series with HEK 293 cells is “good selectivity index”. The viability at 13.6 µM in the series on T98G cells [2] (T98G cells treated at 18 and 24 h post synchronization) was 45 to 50%; in the series on T98G cells [2] (non-synchronized T98G cells), about 75%. The “effect of time post synchronization on cell viability” value in the series on T98G cells [2] (T98G cells, Kruskal Wallis test) is reported as “significant effect of time on cell viability”.
For `C=C1C(=O)O[C@H]2C(=C)[C@]3(CCC(=O)O3)[C@@H](C)CC[C@@H]12` [compound 4, (3aS,6S,7S,8aR)-6-methyl-3,8-dimethyleneoctahydro-5'H-spiro[cyclohepta[b]furan-7,2'-furan]-2,5'(3H)-dione], the IC50 in the series on T98G cells [1] (24 h, 10 to 160 µg/mL tested, read-out: concentration needed to reduce 50% of cell viability) was over 40 µg/mL. Further, the “anti-glioblastoma activity (in words)” value in the series with T98G cells [1] was “less active”.
On to `C=C1C(=O)OC2C(=C)C(CCC(=O)OC)C(C)CCC12` (stereo not shown) [compound 5], for which the “percentage of cell viability” value in the series on T98G cells [1] (24 h) is on record as “higher than 50%”. Besides, the “anti-glioblastoma activity (in words)” value in the series on T98G cells [1] is on record as “weak anti-glioblastoma activity”.
For the molecule “Methyl 3-((3aS,6S,7S,8aR)-6-methyl-3,8-dimethylene-2-oxooctahydro-2H-cyclohepta[b]furan-7-yl)propanoate [compound 11]”, the “percentage of cell viability” value in the series on T98G cells [1] (24 h) was “higher than 50%”. The “anti-glioblastoma activity (in words)” value in the series with T98G cells [1] is recorded as “weak anti-glioblastoma activity”.

(Values after PMC11190268, “Enhancing structural diversity through chemical engineering of Ambrosia tenuifolia extract for novel anti-glioblastoma compounds” (Scientific Reports, 2024).)
